In paper PMC539285, “Anti-Plasmodium activity of ceramide analogs” (Malaria Journal, 2004):

Assays:
[1] = system: P. falciparum strain W2; assay: Anti-Plasmodium activity, strain W2; format: cell-based
Method: (§1) P. falciparum strains (FcB1/Colombia, K1/Thailand, F32/Tanzania, W2/Indochina) were maintained in continuous culture on human erythrocytes in RPMI medium containing 7% (v/v) heat-inactivated human serum under an atmosphere of 3% CO2, 6% O2, 91% N2, at 37°C, as described by Trager and Jensen. Parasite synchronization was performed successively by treatment with 5% (w/v) sorbitol and by concentration in gelatin solution as previously described.
(§2) Drug susceptibility assays were performed using a modification of the semi automated microdilution technique of Desjardins et al.. Stock solutions of test compounds were prepared in DMSO. Drug solutions were serially diluted twofold with 100 μl culture medium in 96-well plates. Asynchronous parasite cultures (100 μl, 1 % parasitemia and 1 % final hematocrite) were added to each well and incubated for 24 hours at 37°C prior to the addition of 0.5 μCi of [^3H] hypoxanthine (Amersham, France, 1 to 5 Ci.mmol/ml) per well. After a further incubation of 24 hour, plates were frozen and thawed. Cell lysates were then collected onto glass-filter papers and counted in a liquid scintillation spectrometer. The growth inhibition for each drug concentration was determined by comparison of the radioactivity incorporated in the treated culture with that in the control culture (having the same final % of DMSO) maintained on the same plate. […]

[2] = system: chloroquine-resistant strain FcB1 of P. falciparum; assay: Anti-Plasmodium activity, [3H]hypoxanthine microdilution on asynchronous cultures; format: cell-based, Plasmodium falciparum
Method: as §1
Drug susceptibility assays were performed using a modification of the semi automated microdilution technique of Desjardins et al.. Stock solutions of test compounds were prepared in DMSO. Drug solutions were serially diluted twofold with 100 μl culture medium in 96-well plates. Asynchronous parasite cultures (100 μl, 1 % parasitemia and 1 % final hematocrite) were added to each well and incubated for 24 hours at 37°C prior to the addition of 0.5 μCi of [^3H] hypoxanthine (Amersham, France, 1 to 5 Ci.mmol/ml) per well. After a further incubation of 24 hour, plates were frozen and thawed. Cell lysates were then collected onto glass-filter papers and counted in a liquid scintillation spectrometer. The growth inhibition for each drug concentration was determined by comparison of the radioactivity incorporated in the treated culture with that in the control culture (having the same final % of DMSO) maintained on the same plate. The concentration causing 50% growth inhibition (IC50) and 90% growth (IC90) were obtained from the drug concentration-response curve and the results were expressed as the means ± the standard deviations determined from several independent experiments.

[3] = system: FcB1 strain; assay: Drug combination with antimalarial drugs, strain FcB1; format: cell-based, Plasmodium falciparum; conditions: FcB1 strain (data not shown)
Source text: (§3) Compound AD2646 (Figure 1) was selected to further investigate the biological effects of methylene analogs on parasite development.

[4] = system: P. falciparum synchronized cultures; assay: Parasite stage-specific inhibitory effects and reversibility (Giemsa-stained smears); format: cell-based, Plasmodium falciparum; conditions: for recovery of parasite growth after drug removal: drug removed after 11 hours
Method: Synchronized cultures (1–2% parasitemia) at the ring stage (0–10 hours old parasites), the trophozoite stage (25–35 hours old parasites) and the schizonte stage (40–48 hours old parasites) were maintained in the presence of drug concentrations in the vicinity of IC50 values. Aliquots were removed at the indicated times, washed three times with culture medium and maintained in culture in the absence or in the presence of a given drug. […] Parasitaemias were determined by counting 3,000 cells for each sample. Controls consisted of parasites incubated with DMSO instead of drugs processed in the same way.
To investigate the cytostatic or cytotoxic effects of AD2646 on the parasite development, cultures at the ring stage (0–10 hours), the trophozoite stage (25–35 hours) and the schizonte stage (40–48 hours) were incubated with 30, 100 or 250 nM of AD2646 for 24.5 hours for the ring stage, for 11 hours for the trophozoite stage, and for 14 hours for the schizonte stage. Aliquots were then taken, washed and incubated in the absence or the presence of drug for a further 13 hours to 24 hours depending upon the parasite stage tested (see Figure 5). Parasitaemia and parasite stages were determined on Giemsa-stained smears at time of aliquot removal and after the subsequent incubation.

[5] = system: P. falciparum sphingomyelin synthase activity; assay: Sphingomyelin synthase activity assay in trophozoite cultures (NBD-C6-ceramide); format: cell-based, Plasmodium falciparum; conditions: trophozoites 20-30 h, 0-500 μM drug, 10 μM NBD-C6-ceramide, 60 min, 37°C
Method: SPM synthase activity was measured as described by Haldar et al.. Briefly, assays were performed on P. falciparum cultures at the trophozoite stage (20–30 h old parasites). 400 μl of culture (1 × 10^8 parasites) were incubated for 60 min at 37°C with 10 μM NBD-C6-ceramide and 0 to 500 μM PPMP or AD2646. Cells were then lysed by freezing and thawing of the culture. Lipids were extracted by a modification of the method of Bligh and Dyer. To each sample, three volumes of a CH3OH/CHCl3 mixture (1:2, v:v) were added and the mixture vortexed for one min. Organic and aqueous phases were separated by centrifugation (12,000 × g, five min) and the organic phase was dried. Lipids were dissolved in 15 μl ethanol and analysed by thin layer chromatography on HPTLC plates (Silica gel 60 F254, Merck, Darmstadt, Germany) in CH3OH/[…]/NH4OH (75:25:4, v:v:v). For qualitative analyses, the fluorescent lipids were detected under UV and for quantitative analyses, the fluorescent lipid spots were scraped, eluted in one ml methanol and quantified at an excitation of 470 nm and an emission of 530 nm in a spectrofluorometer. The percentage of SPM synthase activity for each drug concentration was determined by comparison of the fluorescence quantified in the analog-treated culture with that in the control culture (without drug).

[6] = system: human MRC-5 cells; assay: Cytotoxicity test upon human embryonic cells (MTT); format: cell-based
Method: (§4) A human diploid embryonic lung cell line (MRC-5, Bio-Whittaker 72211D) was used to assess the cytotoxic effects towards eukaryotic host cells. MRC-5 cells were seeded at 5,000 cells per well in 100 μl. After 24 hours, the cells were washed and two-fold dilutions of the drug were added in 200 μl standard culture medium (RPMI medium + 5% fetal calf serum) and maintained for five days under 5% CO2 atmosphere. The final DMSO concentration in the culture remained below 0.1%. Untreated cultures were included as controls. The cytotoxicity was determined using the colorimetric MTT assay according to the manufacturer's recommendations (Cell proliferation kit I, Roche Applied Science, France) and scored as a percentage of reduction in absorption at 540 nm of treated cultures versus untreated control cultures. […] The results were expressed as the mean ± the standard deviations determined from several independent experiments. The index of selectivity was defined as the ratio of the IC50 value on MRC-5 to that of P. falciparum.

[7] = Cytotoxicity test upon human embryonic cells (MTT); format: cell-based; conditions: human, MRC-5 human diploid embryonic lung cells; MRC-5, five days, MTT; mean of three experiments
Method: as §4

[8] = system: CQ-resistant strain K1; assay: Drug combination with antimalarial drugs, strain K1; format: cell-based, Plasmodium falciparum; conditions: CQ-resistant strain K1 (data not shown)
Source text: as §3

[9] = system: P. falciparum strain F32; assay: Anti-Plasmodium activity, strain F32; format: cell-based
Method: as §1, §2

[10] = system: P. falciparum strain K1; assay: Anti-Plasmodium activity, strain K1; format: cell-based
Method: as §1, §2

CCCCCCCCCCCCCCN[C@H](CO)[C@H](O)c1ccc([N+](=O)[O-])cc1 [AD2646]
IC50 [1]: 28 nM | efficiency in inhibiting parasite development relative to PPMP ([2]; AD2646 versus PPMP): about 300 times | IC90 ([2]; Plasmodium falciparum, 48 h, Figure 3, series B, strain FcB1, 90% growth inhibition, read-out: CI90 (the source's name)): 57.7 ± 3.2 nM | IC50 ([2]; Plasmodium falciparum, Figure 3, series B (methylene or thiourea linkage), strain FcB1, read-out: CI50 (the source's name)): 30.8 ± 4.6 nM | drug combination effect with artemether [3]: non-synergistic and non-antagonistic effect | drug combination effect with mefloquine [3]: non-synergistic and non-antagonistic effect | parasite growth from the ring stage ([4]; ring stage, 100 and 250 nM, no recovery after drug removal at 24 hours): irreversibly blocked at the young trophozoite stage | development of the ring stage ([4]; ring stage, continuous incubation with 30 nM): slightly affected | development of the schizont stage ([4]; schizont stage, 30 nM): a slight effect was only observed | parasite growth from the schizont stage ([4]; schizont stage, 100 nM): irreversibly blocked | recovery of parasite growth after drug removal ([4]; trophozoite stage, 30 nM): Only a partial recovery of parasite growth | recovery of parasite growth after drug removal ([4]; trophozoite stage, 100 nM): No recovery of parasite growth | development of the trophozoite stage ([4]; trophozoite stage, continuous incubation with 30 nM): completely blocked development | inhibition of SPM synthase activity (shape of curve) [5]: biphasic inhibition curve that superimposes on the PPMP inhibition curve | IC50 ([6]; Homo sapiens, MRC5, 120 h, MRC-5, five days, MTT, mean of three experiments): 4900 nM | Index of selectivity ([6]; ratio of the IC50 value on MRC-5 cells to that on P. falciparum): 160 | IC90 at 5 days [7]: 7500 nM | drug combination effect with CQ [8]: non-synergistic and non-antagonistic effect | IC50 [9]: 21 nM | IC50 [10]: 45 nM
